Structures can show the parent of a compound that is named as a salt.
What follows are molecules tested against T1, human GluN1/GluN2B NMDA receptors (Homo sapiens, UniProt Q13224) (assay: Calcium flux (FLIPR) assay on cloned human NR1/GluN2B ion channels expressed in mammalian cells (standard and HTS variants)). Conditions: cells expressing human GluN1/GluN2B, glutamate and glycine co-agonists.
T1 construct: expressed in transfected cells
Format: cell-based
Outline: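 Calcium influx read by FLIPR after co-agonist addition (glycine 10 μM, glutamate near EC40) following 5 min compound preincubation, with signal normalized to control wells.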

T1 sequence (Q13224 27-1484, other chains not shown): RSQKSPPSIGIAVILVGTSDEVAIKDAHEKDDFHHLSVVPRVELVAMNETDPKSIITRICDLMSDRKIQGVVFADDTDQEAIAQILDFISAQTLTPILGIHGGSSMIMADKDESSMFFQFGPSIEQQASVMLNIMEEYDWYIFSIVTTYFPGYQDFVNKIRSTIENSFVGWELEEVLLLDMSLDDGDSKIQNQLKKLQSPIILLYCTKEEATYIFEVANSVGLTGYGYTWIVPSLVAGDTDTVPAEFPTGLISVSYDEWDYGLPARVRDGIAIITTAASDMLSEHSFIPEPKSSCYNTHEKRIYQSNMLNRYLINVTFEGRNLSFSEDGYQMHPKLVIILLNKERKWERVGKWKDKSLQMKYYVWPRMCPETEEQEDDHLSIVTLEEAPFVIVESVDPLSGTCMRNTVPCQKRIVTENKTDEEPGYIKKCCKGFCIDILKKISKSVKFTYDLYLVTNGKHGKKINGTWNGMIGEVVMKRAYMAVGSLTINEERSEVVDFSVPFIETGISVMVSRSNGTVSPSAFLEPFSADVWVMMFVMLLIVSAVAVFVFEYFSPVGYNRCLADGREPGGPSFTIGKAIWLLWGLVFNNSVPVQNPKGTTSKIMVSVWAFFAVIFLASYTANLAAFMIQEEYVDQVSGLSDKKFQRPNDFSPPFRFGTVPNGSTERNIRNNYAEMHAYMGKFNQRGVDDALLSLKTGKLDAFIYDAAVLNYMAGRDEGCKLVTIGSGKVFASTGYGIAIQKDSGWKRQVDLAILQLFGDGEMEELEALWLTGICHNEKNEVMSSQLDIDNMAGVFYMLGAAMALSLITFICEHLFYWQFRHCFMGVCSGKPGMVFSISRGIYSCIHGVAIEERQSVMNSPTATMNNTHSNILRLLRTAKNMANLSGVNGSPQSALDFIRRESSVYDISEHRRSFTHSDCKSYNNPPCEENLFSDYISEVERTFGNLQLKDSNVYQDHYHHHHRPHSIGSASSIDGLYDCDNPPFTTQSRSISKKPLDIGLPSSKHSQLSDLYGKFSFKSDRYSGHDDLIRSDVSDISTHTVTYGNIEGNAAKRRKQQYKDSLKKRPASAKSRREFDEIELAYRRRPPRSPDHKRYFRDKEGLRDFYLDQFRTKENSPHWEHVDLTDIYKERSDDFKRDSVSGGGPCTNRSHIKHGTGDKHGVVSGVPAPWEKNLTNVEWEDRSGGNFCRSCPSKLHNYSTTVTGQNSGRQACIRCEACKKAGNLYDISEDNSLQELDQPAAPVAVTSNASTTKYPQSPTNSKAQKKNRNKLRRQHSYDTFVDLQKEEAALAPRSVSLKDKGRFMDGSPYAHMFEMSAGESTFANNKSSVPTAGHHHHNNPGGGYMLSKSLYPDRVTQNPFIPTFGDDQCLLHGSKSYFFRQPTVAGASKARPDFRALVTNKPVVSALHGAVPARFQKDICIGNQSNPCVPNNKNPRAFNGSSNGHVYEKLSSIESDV

In order of falling IC50:
1. Fc1ccc(Cn2ncc3ncc(-c4ccc(Cl)c(Cl)c4)cc32)cn1 [Example 214, 6-(3,4-Dichlorophenyl)-1-[(6-fluoro-3-pyridyl)methyl]pyrazolo[4,3-b]pyridine]  1910 nM
2. COc1ccc(Cn2ncc3ncc(-c4ccc(F)c(C(F)F)c4)cc32)cn1 [Example 204, 6-[3-(Difluoromethyl)-4-fluoro-phenyl]-1-[(6-methoxy-3-pyridyl)methyl]pyrazolo[4,3-b]pyridine]  1620 nM
3. COc1ccc(Cn2ncc3ncc(-c4ccc(F)c(OC(F)F)c4)cc32)cn1 [Example 227, 6-[3-(Difluoromethoxy)-4-fluoro-phenyl]-1-[(6-methoxy-3-pyridyl)methyl]pyrazolo[4,3-b]pyridine]  1620 nM
4. Fc1ccc(-c2cnc3cnn(Cc4cncc(OC(F)F)c4)c3c2)cc1F [Example 194, 1-[[5-(Difluoromethoxy)-3-pyridyl]methyl]-6-(3,4-difluorophenyl)pyrazolo[4,3-b]pyridine]  850 nM
5. COc1ncccc1Cn1ncc2ncc(-c3ccc(F)c(OC(F)F)c3)cc21 [Example 229, 6-[3-(Difluoromethoxy)-4-fluoro-phenyl]-1-[(2-methoxy-3-pyridyl)methyl]pyrazolo[4,3-b]pyridine]  716 nM
6. Fc1ccc(-c2cnc3cnn(Cc4ccccn4)c3c2)cc1OC(F)F [Example 222, 6-[3-(Difluoromethoxy)-4-fluoro-phenyl]-1-(2-pyridylmethyl)pyrazolo[4,3-b]pyridine]  502 nM
7. COc1cccc(Cn2ncc3ncc(-c4ccc(F)c(OC(F)F)c4)cc32)n1 [Example 228, 6-[3-(Difluoromethoxy)-4-fluoro-phenyl]-1-[(6-methoxy-2-pyridyl)methyl]pyrazolo[4,3-b]pyridine]  383 nM
8. COc1ncccc1Cn1ncc2ncc(-c3ccc(F)c(C(F)F)c3)cc21 [Example 206, 6-[3-(Difluoromethyl)-4-fluoro-phenyl]-1-[(2-methoxy-3-pyridyl)methyl]pyrazolo[4,3-b]pyridine]  307 nM
9. COc1cncc(Cn2ncc3ncc(-c4ccc(F)c(F)c4)cc32)c1 [Example 193, 6-(3,4-Difluorophenyl)-1-[(5-methoxy-3-pyridyl)methyl]pyrazolo[4,3-b]pyridine]  277 nM
10. COc1cncc(Cn2ncc3ncc(-c4ccc(Cl)c(Cl)c4)cc32)c1 [Example 215, 6-(3,4-Dichlorophenyl)-1-[(5-methoxy-3-pyridyl)methyl]pyrazolo[4,3-b]pyridine]  217 nM
11. Cc1cncc(Cn2ncc3ncc(-c4ccc(F)c(C(C)(F)F)c4)cc32)c1 [Example 217, 6-[3-(1,1-Difluoroethyl)-4-fluoro-phenyl]-1-[(5-methyl-3-pyridyl)methyl]pyrazolo[4,3-b]pyridine]  189 nM
12. COc1cccc(Cn2ncc3ncc(-c4ccc(F)c(C(F)F)c4)cc32)n1 [Example 205, 6-[3-(Difluoromethyl)-4-fluoro-phenyl]-1-[(6-methoxy-2-pyridyl)methyl]pyrazolo[4,3-b]pyridine]  177 nM
13. Fc1ccc(Cn2ncc3ncc(-c4ccc(F)c(F)c4)cc32)cn1 [Example 191, 6-(3,4-Difluorophenyl)-1-[(6-fluoro-3-pyridyl)methyl]pyrazolo[4,3-b]pyridine]  176 nM
14. CC(F)(F)c1cc(-c2cnc3cnn(Cc4cncc(C#N)c4)c3c2)ccc1F [Example 219, 5-[[6-[3-(1,1-Difluoroethyl)-4-fluoro-phenyl]pyrazolo[4,3-b]pyridin-1-yl]methyl]pyridine-3-carbonitrile]  158 nM
15. COc1cncc(Cn2ncc3ncc(-c4ccc(F)c(Cl)c4)cc32)c1 [Example 196, 6-(3-Chloro-4-fluoro-phenyl)-1-[(5-methoxy-3-pyridyl)methyl]pyrazolo[4,3-b]pyridine]  152 nM
16. Fc1ccc(-c2cnc3cnn(Cc4ccccn4)c3c2)cc1C(F)F [Example 197, 6-[3-(Difluoromethyl)-4-fluoro-phenyl]-1-(2-pyridylmethyl)pyrazolo[4,3-b]pyridine]  130 nM
17. Fc1ccc(-c2cnc3cnn(Cc4cncc(OC(F)F)c4)c3c2)cc1C(F)F [Example 210, 1-[[5-(Difluoromethoxy)-3-pyridyl]methyl]-6-[3-(difluoromethyl)-4-fluoro-phenyl]pyrazolo[4,3-b]pyridine]  110 nM
18. CC(F)(F)c1cc(-c2cnc3cnn(Cc4cccnc4)c3c2)ccc1F [Example 216, 6-[3-(1,1-Difluoroethyl)-4-fluoro-phenyl]-1-(3-pyridylmethyl)pyrazolo[4,3-b]pyridine]  109 nM
19. CC(F)(F)c1cc(-c2cnc3cnn(Cc4cncc(F)c4)c3c2)ccc1F [Example 218, 6-[3-(1,1-Difluoroethyl)-4-fluoro-phenyl]-1-[(5-fluoro-3-pyridyl)methyl]pyrazolo[4,3-b]pyridine]  107 nM
20. COc1cncc(Cn2ncc3ncc(-c4ccc(F)c(C(C)(F)F)c4)cc32)c1 [Example 220, 6-[3-(1,1-Difluoroethyl)-4-fluoro-phenyl]-1-[(5-methoxy-3-pyridyl)methyl]pyrazolo[4,3-b]pyridine]  89 nM
21. Fc1c(-c2cnc3cnn(Cc4cncc(Cl)c4)c3c2)cccc1C(F)F [Example 213, 1-[(5-Chloro-3-pyridyl)methyl]-6-[3-(difluoromethyl)-2-fluoro-phenyl]pyrazolo[4,3-b]pyridine]  68 nM
22. N#Cc1cncc(Cn2ncc3ncc(-c4ccc(F)c(OC(F)F)c4)cc32)c1 [Example 226, 5-[[6-[3-(Difluoromethoxy)-4-fluoro-phenyl]pyrazolo[4,3-b]pyridin-1-yl]methyl]pyridine-3-carbonitrile]  68 nM
23. N#Cc1cncc(Cn2ncc3ncc(-c4cccc(C(F)F)c4F)cc32)c1 [Example 212, 5-[[6-[3-(Difluoromethyl)-2-fluoro-phenyl]pyrazolo[4,3-b]pyridin-1-yl]methyl]pyridine-3-carbonitrile]  67 nM
24. CC(F)(F)c1cc(-c2cnc3cnn(Cc4cncc(Cl)c4)c3c2)ccc1F [Example 221, 1-[(5-Chloro-3-pyridyl)methyl]-6-[3-(1,1-difluoroethyl)-4-fluoro-phenyl]pyrazolo[4,3-b]pyridine]  64 nM
25. Cc1cncc(Cn2ncc3ncc(-c4ccc(F)c(OC(F)F)c4)cc32)c1 [Example 224, 6-[3-(Difluoromethoxy)-4-fluoro-phenyl]-1-[(5-methyl-3-pyridyl)methyl]pyrazolo[4,3-b]pyridine]  56 nM
26. Fc1cncc(Cn2ncc3ncc(-c4ccc(F)c(F)c4)cc32)c1 [Example 192, 6-(3,4-Difluorophenyl)-1-[(5-fluoro-3-pyridyl)methyl]pyrazolo[4,3-b]pyridine trifluoroacetate salt]  48 nM
27. COc1cncc(Cn2ncc3ncc(-c4ccc(F)c(OC(F)F)c4)cc32)c1 [Example 230, 6-[3-(Difluoromethoxy)-4-fluoro-phenyl]-1-[(5-methoxy-3-pyridyl)methyl]pyrazolo[4,3-b]pyridine]  48 nM
28. Fc1ccc(-c2cnc3cnn(Cc4cncc(C(F)(F)F)c4)c3c2)cc1C(F)F [Example 211, 6-[3-(Difluoromethyl)-4-fluoro-phenyl]-1-[[5-(trifluoromethyl)-3-pyridyl]methyl]pyrazolo[4,3-b]pyridine]  47 nM
29. Fc1cncc(Cn2ncc3ncc(-c4ccc(F)c(OC(F)F)c4)cc32)c1 [Example 225, 6-[3-(Difluoromethoxy)-4-fluoro-phenyl]-1-[(5-fluoro-3-pyridyl)methyl]pyrazolo[4,3-b]pyridine]  39 nM
30. Fc1ccc(-c2cnc3cnn(Cc4cncc(Cl)c4)c3c2)cc1OC(F)F [Example 231, 1-[(5-Chloro-3-pyridyl)methyl]-6-[3-(difluoromethoxy)-4-fluoro-phenyl]pyrazolo[4,3-b]pyridine]  39 nM
31. Fc1ccc(-c2cnc3cnn(Cc4cccnc4)c3c2)cc1OC(F)F [Example 223, 6-[3-(Difluoromethoxy)-4-fluoro-phenyl]-1-(3-pyridylmethyl)pyrazolo[4,3-b]pyridine]  38 nM
32. Cc1nn(Cc2cccnc2)c2cc(-c3ccc(F)c(C(F)F)c3)cnc12 [Example 199, 6-[3-(Difluoromethyl)-4-fluoro-phenyl]-3-methyl-1-(3-pyridylmethyl)pyrazolo[4,3-b]pyridine]  34 nM
33. N#Cc1cncc(Cn2ncc3ncc(-c4ccc(F)c(C(F)F)c4)cc32)c1 [Example 203, 5-[[6-[3-(Difluoromethyl)-4-fluoro-phenyl]pyrazolo[4,3-b]pyridin-1-yl]methyl]pyridine-3-carbonitrile]  31 nM
34. COc1cncc(Cn2ncc3ncc(-c4ccc(F)c(C(F)F)c4)cc32)c1 [Example 207, 6-[3-(Difluoromethyl)-4-fluoro-phenyl]-1-[(5-methoxy-3-pyridyl)methyl]pyrazolo[4,3-b]pyridine]  28 nM
35. Fc1ccc(-c2cnc3cnn(Cc4cncc(Cl)c4)c3c2)cc1C(F)F [Example 208, 1-[(5-Chloro-3-pyridyl)methyl]-6-[3-(difluoromethyl)-4-fluoro-phenyl]pyrazolo[4,3-b]pyridine]  26 nM
36. Fc1cncc(Cn2ncc3ncc(-c4ccc(F)c(Cl)c4)cc32)c1 [Example 195, 6-(3-Chloro-4-fluoro-phenyl)-1-[(5-fluoro-3-pyridyl)methyl]pyrazolo[4,3-b]pyridine]  25 nM
37. Fc1ccc(-c2cnc3cnn(Cc4cncc(C(F)F)c4)c3c2)cc1C(F)F [Example 209, 6-[3-(Difluoromethyl)-4-fluoro-phenyl]-1-[[5-(difluoromethyl)-3-pyridyl]methyl]pyrazolo[4,3-b]pyridine]  20 nM
38. Fc1ccc(Cn2ncc3ncc(-c4ccc(F)c(C(F)F)c4)cc32)cn1 [Example 201, 6-(3-(Difluoromethyl)-4-fluorophenyl)-1-((6-fluoropyridin-3-yl)methyl)-1H-pyrazolo[4,3-b]pyridine]  16 nM
39. Cc1cncc(Cn2ncc3ncc(-c4ccc(F)c(C(F)F)c4)cc32)c1 [Example 200, 6-[3-(Difluoromethyl)-4-fluoro-phenyl]-1-[(5-methyl-3-pyridyl)methyl]pyrazolo[4,3-b]pyridine]  12 nM
